# Measurements reported in patent publication US20170333591A9, “ABSORBENT ARTICLE COMPRISING MALODOR REDUCTION COMPOSITIONS” (The Procter & Gamble Company, priority 2014, published 2017).
# Experiment: Log of liquid dish neat product liquid-air partition coefficient
# Assay type: physicochemical
# Conditions: not given
row,Compound,Comment Code: Log of liquid dish neat product liquid-air partition coefficient
1,COC(Cc1ccccc1)OC [Material 627],K (Log of liquid dish neat product liquid-air partition coefficient greater than or equal to 7)
2,CC1C2CC(CC2C2CCC(O)CC2)C1(C)C (stereo not shown) [Material 230],K (Log of liquid dish neat product liquid-air partition coefficient greater than or equal to 7)
3,Cc1ccc(C(C)C)cc1O [Material 575],K (Log of liquid dish neat product liquid-air partition coefficient greater than or equal to 7)
4,C=C1CCC2OC2(C)CCC2C1CC2(C)C (stereo not shown) [Material 1148],K (Log of liquid dish neat product liquid-air partition coefficient greater than or equal to 7)
5,CC(=O)OCCc1ccccc1 [Material 832],K (Log of liquid dish neat product liquid-air partition coefficient greater than or equal to 7)
6,CC1=CC[C@@H]2[C@@]3(C)CCCC(C)(C)[C@@H]3CC[C@@]2(C)O1 [Material 1029],K (Log of liquid dish neat product liquid-air partition coefficient greater than or equal to 7)
7,CCCCCCCC(=O)OCCC(C)C [Material 237],K (Log of liquid dish neat product liquid-air partition coefficient greater than or equal to 7)
8,CC(C)=CCC/C(C)=C/COC=O [Material 306],K (Log of liquid dish neat product liquid-air partition coefficient greater than or equal to 7)
9,CC(C)=C1CCC2=CC(=O)CC(C)C2(C)C1 (stereo not shown) [Material 684],K (Log of liquid dish neat product liquid-air partition coefficient greater than or equal to 7)
10,CC1C(=O)CC2(C)CCCC(C)(C)C23CC13 (stereo not shown) [Material 804],K (Log of liquid dish neat product liquid-air partition coefficient greater than or equal to 7)
11,CCc1ccccc1CC(C)(C)C=O [Material 354],K (Log of liquid dish neat product liquid-air partition coefficient greater than or equal to 7)
12,CC1=CCC(C23CCCC(C)(C2)OC3)C1(C)C (stereo not shown) [Material 570],K (Log of liquid dish neat product liquid-air partition coefficient greater than or equal to 7)
13,CC=Cc1ccc(OC(C)=O)c(OC)c1 [Material 213],K (Log of liquid dish neat product liquid-air partition coefficient greater than or equal to 7)
14,CC(C)=CCC/C(C)=C\COC=O [Material 59],K (Log of liquid dish neat product liquid-air partition coefficient greater than or equal to 7)
15,CC(=O)OC12CCCC(C)(CCC3C1CC3(C)C)C2 (stereo not shown) [Material 573],K (Log of liquid dish neat product liquid-air partition coefficient greater than or equal to 7)
16,CC1(C)C2=C(CO)CCC(C)(C)C23CCC1C3 (stereo not shown) [Material 248],K (Log of liquid dish neat product liquid-air partition coefficient greater than or equal to 7)

# Same assay, conditions: Comment Code letters K and/or L
row,Compound,Log of liquid dish neat product liquid-air partition coefficient (Comment Code K/L)
1,C=C1CCC2OC2(C)CCC2C1CC2(C)C (stereo not shown) [Material 1148],K (Log of liquid dish neat product liquid-air partition coefficient greater than or equal to 7)

# Same assay, conditions: code letter within the Comment Code cell
row,Compound,Log of liquid dish neat product liquid-air partition coefficient (Comment Code K/L)
1,COC(C)(C)CCCC(C)CC=O (stereo not shown) [Material 126],K (Log of liquid dish neat product liquid-air partition coefficient greater than or equal to 7)
2,CC=CC(=O)C1C(C)C=CCC1(C)C (stereo not shown) [Material 466],K (Log of liquid dish neat product liquid-air partition coefficient greater than or equal to 7)
3,CCc1ccc(CC(C)(C)C#N)cc1 [Material 361],K (Log of liquid dish neat product liquid-air partition coefficient greater than or equal to 7)
4,CCOC(=O)C1CCC(C(=O)OCC)CC1 (stereo not shown) [Material 347],K (Log of liquid dish neat product liquid-air partition coefficient greater than or equal to 7)
5,O=C1CCCCCCCCCC/C=C/CCO1 [Material 289],K (Log of liquid dish neat product liquid-air partition coefficient greater than or equal to 7)
6,CCC1=CCCC(C)(C)C12C=CC(C)O2 (stereo not shown) [Material 413],K (Log of liquid dish neat product liquid-air partition coefficient greater than or equal to 7)
7,CC1C2CC(CC2C2CCC(O)CC2)C1(C)C (stereo not shown) [Material 230],K (Log of liquid dish neat product liquid-air partition coefficient greater than or equal to 7)
8,COC1CCCCCCCCCCC1 [Material 9],K (Log of liquid dish neat product liquid-air partition coefficient greater than or equal to 7)
9,C=CCCCCCCCCO [Material 470],K (Log of liquid dish neat product liquid-air partition coefficient greater than or equal to 7)
10,CC(C=O)Cc1ccc(C(C)(C)C)cc1 (stereo not shown) [Material 162],K (Log of liquid dish neat product liquid-air partition coefficient greater than or equal to 7)
11,CCNC(=O)C1CC(C)CCC1C(C)C (stereo not shown) [Material 57],K (Log of liquid dish neat product liquid-air partition coefficient greater than or equal to 7)
12,CCCCCCCC(=O)OCCCCCC [Material 263],K (Log of liquid dish neat product liquid-air partition coefficient greater than or equal to 7)
13,C=CC(C)=CCCC(C)(C)O [Material 43],K (Log of liquid dish neat product liquid-air partition coefficient greater than or equal to 7)
14,C=CCCCCCCCC=CCC#N [Material 137],K (Log of liquid dish neat product liquid-air partition coefficient greater than or equal to 7)
15,CCCCCCCC1CCCC(=O)O1 (stereo not shown) [Material 463],K (Log of liquid dish neat product liquid-air partition coefficient greater than or equal to 7)
16,CCCCCCC(CO)C(C)=O (stereo not shown) [Material 106],K (Log of liquid dish neat product liquid-air partition coefficient greater than or equal to 7)
17,CC(=O)OCC=C(C)CCC=C(C)CCC=C(C)C [Material 368],K (Log of liquid dish neat product liquid-air partition coefficient greater than or equal to 7)

# Same assay, conditions: code letters K/L of the Comment Code
row,Compound,Log of liquid dish neat product liquid-air partition coefficient (Comment Code)
1,COC(Cc1ccccc1)OC [Material 627],K (Log of liquid dish neat product liquid-air partition coefficient greater than or equal to 7)
2,C=CCCCCCCCCC(=O)OCCCC [Material 599],K (Log of liquid dish neat product liquid-air partition coefficient greater than or equal to 7)
3,CCCCCCCCCC(=O)O [Material 582],K (Log of liquid dish neat product liquid-air partition coefficient greater than or equal to 7)
4,CC(=CCC1CC=C(C)C1(C)C)CO (stereo not shown) [Material 908],K (Log of liquid dish neat product liquid-air partition coefficient greater than or equal to 7)
5,CC(CO)CCCc1ccccc1 (stereo not shown) [Material 1012],K (Log of liquid dish neat product liquid-air partition coefficient greater than or equal to 7)
6,CC1CCC2C(C2(C)C)C12COC(C)(C)OC2 (stereo not shown) [Material 1036],K (Log of liquid dish neat product liquid-air partition coefficient greater than or equal to 7)
7,CC1=CC[C@@H]2[C@@]3(C)CCCC(C)(C)[C@@H]3CC[C@@]2(C)O1 [Material 1029],K (Log of liquid dish neat product liquid-air partition coefficient greater than or equal to 7)
8,CC(=O)OC(C)CC/C=C(\C)CCC=C(C)C (stereo not shown) [Material 890],K (Log of liquid dish neat product liquid-air partition coefficient greater than or equal to 7)
9,C=C1CCCC(C)(C)C1C=C(C)C(C)=O (stereo not shown) [Material 913],K (Log of liquid dish neat product liquid-air partition coefficient greater than or equal to 7)
10,CC12CCC(C(=O)C1=O)C2(C)C (stereo not shown) [Material 587],K (Log of liquid dish neat product liquid-air partition coefficient greater than or equal to 7)
11,CC(C)=C1CCC2=CC(=O)CC(C)C2(C)C1 (stereo not shown) [Material 684],K (Log of liquid dish neat product liquid-air partition coefficient greater than or equal to 7)
12,CC1C(=O)CC2(C)CCCC(C)(C)C23CC13 (stereo not shown) [Material 804],K (Log of liquid dish neat product liquid-air partition coefficient greater than or equal to 7)
13,CC1=CCCC(C)=CCC(C)(C)C=CC1 [Material 706],K (Log of liquid dish neat product liquid-air partition coefficient greater than or equal to 7)
14,CC1=CCC(C23CCCC(C)(C2)OC3)C1(C)C (stereo not shown) [Material 570],K (Log of liquid dish neat product liquid-air partition coefficient greater than or equal to 7)
15,C=CCCCCCCCCCO [Material 870],K (Log of liquid dish neat product liquid-air partition coefficient greater than or equal to 7)
16,C=CCOC(=O)COCCC(C)C [Material 748],K (Log of liquid dish neat product liquid-air partition coefficient greater than or equal to 7)
17,CC(C)=CCCC1=CCC(C)(C=O)CC1 (stereo not shown) [Material 988],K (Log of liquid dish neat product liquid-air partition coefficient greater than or equal to 7)
18,CC(=O)OC12CCCC(C)(CCC3C1CC3(C)C)C2 (stereo not shown) [Material 573],K (Log of liquid dish neat product liquid-air partition coefficient greater than or equal to 7)
19,CC(C)=CCCC(C)c1ccc(C)cc1 (stereo not shown) [Material 713],K (Log of liquid dish neat product liquid-air partition coefficient greater than or equal to 7)
20,CC1=CC2C(C(C)C)CCC(C)(O)C2CC1 (stereo not shown) [Material 1046],K (Log of liquid dish neat product liquid-air partition coefficient greater than or equal to 7)
21,CCCCCOC(=O)C=Cc1ccccc1 [Material 671],K (Log of liquid dish neat product liquid-air partition coefficient greater than or equal to 7)
